The experiment addresses Phospholipase A2 (Homo sapiens, UniProt P04054). As to the kind of experiment: phospholipase A2 activity inhibition – biochemical, set 2, counter-screen for ATG4B inhibitor project, dose response (AID 588586). In general terms: A counterscreen serves to expose hits that act by an unwanted route or on another target.

The results in this text go back to BindingDB's records for doi:10.7270/Q2X34VZF (Burnham Center For Chemical Genomics, 2011).

By IC50 is commonly meant the concentration that inhibits the measured activity by half. Read a low IC50 as greater potency in that assay.

Chain of Phospholipase A2 (P04054 whole entry): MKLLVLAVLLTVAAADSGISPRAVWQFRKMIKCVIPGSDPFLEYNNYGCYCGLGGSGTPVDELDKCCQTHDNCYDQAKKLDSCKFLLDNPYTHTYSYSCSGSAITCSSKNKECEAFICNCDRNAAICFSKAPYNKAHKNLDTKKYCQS

Take `CC1=CC(/C=N/n2c(COc3ccccc3)nc3ccccc3c2=O)C(=O)C([N+](=O)[O-])=C1` (stereo not drawn) [3-[[(E)-(3-methyl-5-nitro-6-oxocyclohexa-2,4-dien-1-ylidene)methyl]amino]-2-(phenoxymethyl)quinazolin-4-one]: half-maximal inhibition (IC50) was put at 10.5 µM. In turn, `Oc1ccc2ccccc2c1CN=Nc1nnc(-c2ncc[nH]2)c2ccccc12` [SMR000151639] registered an IC50 of 2.47 µM.

Turning to `Cc1ccc(NC2=NC(=O)C(=Cc3c(C)[nH]c4ccccc34)S2)cc1` [5-[(2-methyl-1H-indol-3-yl)methylene]-2-[(4-methylphenyl)imino]-1,3-thiazolidin-4-one], the IC50 stood at 22.3 µM.
